In brackets after ≈: the same amount, converted by molar mass. Activity calls are given as the source filed them. No cut-off for these calls is given here.
Legend:
Enterococcus faecalis = experiment: Antibacterial activity against Enterococcus faecalis assessed as bacterial growth inhibition incubated for 24 hrs by CLSI based two serial dilution assay; assay type: functional
Klebsiella pneumoniae = experiment: Antibacterial activity against Klebsiella pneumoniae assessed as bacterial growth inhibition incubated for 24 hrs by CLSI based two serial dilution assay; assay type: functional
Staphylococcus aureus [1] = experiment: Antibacterial activity against methicillin-resistant Staphylococcus aureus assessed as bacterial growth inhibition incubated for 24 hrs by CLSI based two serial dilution assay; assay type: functional
Pseudomonas aeruginosa [2] = experiment: Antibacterial activity against Pseudomonas aeruginosa assessed as bacterial growth inhibition incubated for 24 hrs by CLSI based two serial dilution assay; assay type: functional
Escherichia coli [3] = experiment: Antibacterial activity against Escherichia coli 25922 assessed as bacterial growth inhibition incubated for 24 hrs by CLSI based two serial dilution assay; assay type: functional
Staphylococcus aureus [4] = experiment: Antibacterial activity against Staphylococcus aureus 29213 assessed as bacterial growth inhibition incubated for 24 hrs by CLSI based two serial dilution assay; assay type: functional
Staphylococcus aureus [5] = experiment: Antibacterial activity against Staphylococcus aureus 25923 assessed as bacterial growth inhibition incubated for 24 hrs by CLSI based two serial dilution assay; assay type: functional
Staphylococcus aureus [6] = experiment: Antibacterial activity against Staphylococcus aureus assessed as bacterial growth inhibition incubated for 24 hrs by CLSI based two serial dilution assay; assay type: functional
Staphylococcus aureus [7] = experiment: Induction of resistance development in methicillin-resistant Staphylococcus aureus assessed as fold increase in MIC measured after consecutive passages for 24 hrs by serial passaging assay; assay type: functional
Acinetobacter baumannii = experiment: Antibacterial activity against Acinetobacter baumannii assessed as bacterial growth inhibition incubated for 24 hrs by CLSI based two serial dilution assay; assay type: functional
Pseudomonas aeruginosa [8] = experiment: Antibacterial activity against Pseudomonas aeruginosa ATCC 27853 assessed as bacterial growth inhibition incubated for 24 hrs by CLSI based two serial dilution assay; assay type: functional
Escherichia coli [9] = experiment: Antibacterial activity against Escherichia coli assessed as bacterial growth inhibition incubated for 24 hrs by CLSI based two serial dilution assay; assay type: functional
Calf thymus DNA [10] = experiment: Binding affinity to calf thymus DNA by UV/vis spectrophotometric analysis; assay type: nucleic-acid assay; details: Bos taurus; dose 4.0 10^-5mol/L
Cell membrane [11] = experiment: Induction of cell membrane disruption in methicillin-resistant Staphylococcus aureus assessed as increase in protein leakage at 16 microg/ml incubated for 8 hrs; assay type: subcellular; details: dose 16.0 µg/ml
Calf thymus DNA [12] = experiment: Competitive binding affinity to calf thymus DNA assessed as compound-DNA complex formation upto 2 10^-5mol/L in presence of neutral red by UV/vis spectrophotometric analysis; assay type: nucleic-acid assay; details: Bos taurus
Candida albicans [13] = experiment: Antifungal activity against Candida albicans ATCC 90023 assessed as inhibition of fungal growth incubated for 24 hrs by CLSI based two serial dilution assay; assay type: functional
[14] = Hemolytic activity in human RBC assessed as hemolysis at 64 microg/ml incubated for 2 hrs by double-dilution analysis; assay type: toxicity, cell-based, Erythrocyte; details: red blood cells (erythrocytes), at 64 µg/mL, read-out: Activity
Staphylococcus aureus [15] = experiment: Antibiofilm activity against methicillin-resistant Staphylococcus aureus assessed as biofilm eradication incubated for 24 hrs by crystal violet staining based assay; assay type: functional, organism-based; details: dose 1-16 µg/ml
Cell membrane [16] = experiment: Induction of membrane depolarization in methicillin-resistant Staphylococcus aureus assessed as increase in fluorescence intensity at 4 times MIC measured at 5 min by DiSC35 dye-based fluorescence assay; assay type: subcellular
Candida parapsilosis = experiment: Antifungal activity against Candida parapsilosis ATCC 22019 assessed as inhibition of fungal growth incubated for 24 hrs by CLSI based two serial dilution assay; assay type: functional; details: Lodderomyces parapsilosis
Aspergillus fumigatus = experiment: Antifungal activity against Aspergillus fumigatus assessed as inhibition of fungal growth incubated for 24 hrs by CLSI based two serial dilution assay; assay type: functional
Staphylococcus aureus [17] = experiment: Antibiofilm activity against methicillin-resistant Staphylococcus aureus assessed as inhibition of biofilm formation at 4 microg/ml incubated for 24 hrs by crystal violet staining based assay; assay type: functional; design: scale not given: the % may be the effect or the level left; details: dose 4 µg/ml
Cell membrane [18] = experiment: Induction of membrane depolarization in methicillin-resistant Staphylococcus aureus assessed as increase in fluorescence intensity at 1 times MIC by DiSC35 dye-based fluorescence assay; assay type: subcellular; details: time 1.0 hrs, TDE = time-dependent effect
Staphylococcus aureus [19] = experiment: Bactericidal activity against methicillin-resistant Staphylococcus aureus assessed as reduction in viable bacteria at 4 times MIC measured at 30 mins by fluorescence microscopic analysis; assay type: functional, organism-based
Candida albicans [20] = experiment: Antifungal activity against Candida albicans assessed as inhibition of fungal growth incubated for 24 hrs by CLSI based two serial dilution assay; assay type: functional
[21] = Cytotoxicity against human BEAS-2B cells assessed as survival rate at 0.5 to 64 microg/ml incubated for 24 hrs by MTT assay; assay type: toxicity, cell-based; details: at 0.5 to 64 µg/mL, dose 0.5-64 µg/ml, read-out: Activity
Staphylococcus aureus [22] = experiment: Induction of morphological changes in methicillin-resistant Staphylococcus aureus assessed as membrane deformations at 4 times MIC incubated for 4 hrs by scanning electron microscopic analysis; assay type: functional, organism-based
Staphylococcus aureus [23] = experiment: Induction of morphological changes in methicillin-resistant Staphylococcus aureus assessed as cracking of cells at 4 times MIC incubated for 4 hrs by scanning electron microscopic analysis; assay type: functional, organism-based
Staphylococcus aureus [24] = experiment: Antibiofilm activity against methicillin-resistant Staphylococcus aureus assessed as decrease in metabolic activity at 1 to 16 microg/ml measured for 6 hrs by alamar blue staining based assay; assay type: functional, organism-based; details: dose 1-16 µg/ml
Staphylococcus aureus [25] = experiment: Bactericidal activity against methicillin-resistant Staphylococcus aureus assessed as increase in apoptotic cells by measuring red fluorescence intensity at 4 times MIC measured upto 250 min by fluorescence microscopic analysis; assay type: functional, organism-based
Candida tropicalis = experiment: Antifungal activity against Candida tropicalis assessed as inhibition of fungal growth incubated for 24 hrs by CLSI based two serial dilution assay; assay type: functional
Calf thymus DNA [26] = experiment: Binding affinity to calf thymus DNA assessed as compound-DNA complex formation at 4 10^-5mol/L by UV/vis spectrophotometric analysis; assay type: nucleic-acid assay; details: Bos taurus
Staphylococcus aureus [27] = experiment: Bactericidal activity against methicillin-resistant Staphylococcus aureus assessed as increase in apoptotic cells at 4 times MIC by fluorescence microscopic analysis; assay type: functional, organism-based; details: time <= 250.0 min
Cell membrane [28] = experiment: Induction of cell membrane permeability in Staphylococcus aureus assessed as increase in fluorescence intensity measured upto 135 mins by propidium iodide staining based fluorescence assay; assay type: subcellular

| SMILES | MIC (Enterococcus faecalis) [µM] | MIC (Klebsiella pneumoniae) [µM] | MIC (Staphylococcus aureus [1]) [µM] | MIC (Pseudomonas aeruginosa [2]) [µM] | MIC (Escherichia coli [3]) [µM] | MIC (Staphylococcus aureus [4]) [µM] | MIC (Staphylococcus aureus [5]) [µM] | MIC (Staphylococcus aureus [6]) [µM] | MIC (Acinetobacter baumannii) [µM] | MIC (Pseudomonas aeruginosa [8]) [µM] | MIC (Escherichia coli [9]) [µM] | MIC (Candida albicans [13]) [µM] | MIC (Candida parapsilosis) [µM] | MIC (Aspergillus fumigatus) [µM] | MIC (Candida albicans [20]) [µM] | MIC (Candida tropicalis) [µM] | other results |
| --- | --- | --- | --- | --- | --- | --- | --- | --- | --- | --- | --- | --- | --- | --- | --- | --- | --- |
| CCn1cc(C(=O)O)c(=O)c2cc(F)c(N3CCNCC3)cc21 [NORFLOXACIN] | 4 (≈ 1.28 µg/mL) | 4 (≈ 1.28 µg/mL) | 4 (≈ 1.28 µg/mL) | 2 (≈ 0.639 µg/mL) | 8 (≈ 2.55 µg/mL) | 2 (≈ 0.639 µg/mL) | 1 (≈ 0.319 µg/mL) | 1 (≈ 0.319 µg/mL) | 8 (≈ 2.55 µg/mL) | 0.5 (≈ 0.16 µg/mL) | 16 (≈ 5.11 µg/mL) |  |  |  |  |  | fold change (FC) (Staphylococcus aureus [7]): 4 |
| CCCCN1C(=O)/C(=N\Nc2nccs2)c2ccccc21 | 0.5 (≈ 0.15 µg/mL) | 0.25 (≈ 0.0751 µg/mL) | 0.25 (≈ 0.0751 µg/mL) | 0.5 (≈ 0.15 µg/mL) | 0.25 (≈ 0.0751 µg/mL) | 0.25 (≈ 0.0751 µg/mL) | 0.25 (≈ 0.0751 µg/mL) | 0.5 (≈ 0.15 µg/mL) | 1 (≈ 0.3 µg/mL) | 0.5 (≈ 0.15 µg/mL) | 0.5 (≈ 0.15 µg/mL) | 0.5 (≈ 0.15 µg/mL) | 0.5 (≈ 0.15 µg/mL) | 1 (≈ 0.3 µg/mL) | 0.5 (≈ 0.15 µg/mL) | 0.5 (≈ 0.15 µg/mL) | Activity (Calf thymus DNA [10]): Dose-Dependent Effect; Activity (Cell membrane [11]): Active; Activity (Calf thymus DNA [12]): Active; hemolysis at 2 h, 64 µg/mL [14]: < 5%; Activity (Staphylococcus aureus [15]): Dose-Dependent Effect; Activity (Cell membrane [16]): Active; Activity (Staphylococcus aureus [17]): 30%; Activity (Cell membrane [18]): Tde; Activity (Staphylococcus aureus [19]): Active; viability at 24 h [21]: > 75%; Activity (Staphylococcus aureus [22]): Active; Activity (Staphylococcus aureus [23]): Active; Activity (Staphylococcus aureus [24]): Active; Activity (Staphylococcus aureus [25]): inactive; Activity (Calf thymus DNA [26]): Active; Activity (Staphylococcus aureus [27]): Active; Activity (Cell membrane [28]): Active |
| CCCCN1C(=O)/C(=N\Nc2nccs2)c2ccc(Br)cc21 | 4 (≈ 1.52 µg/mL) | 0.5 (≈ 0.19 µg/mL) | 1 (≈ 0.379 µg/mL) | 1 (≈ 0.379 µg/mL) | 16 (≈ 6.07 µg/mL) | 4 (≈ 1.52 µg/mL) | 0.5 (≈ 0.19 µg/mL) | 1 (≈ 0.379 µg/mL) | 0.5 (≈ 0.19 µg/mL) | 0.5 (≈ 0.19 µg/mL) | 0.5 (≈ 0.19 µg/mL) | 1 (≈ 0.379 µg/mL) | 0.5 (≈ 0.19 µg/mL) | 0.5 (≈ 0.19 µg/mL) | 0.5 (≈ 0.19 µg/mL) | 1 (≈ 0.379 µg/mL) |  |
| C=CCN1C(=O)/C(=N\Nc2nccs2)c2ccccc21 | 64 (≈ 18.2 µg/mL) | 256 (≈ 72.8 µg/mL) | 512 (≈ 146 µg/mL) | 512 (≈ 146 µg/mL) | 512 (≈ 146 µg/mL) | 128 (≈ 36.4 µg/mL) | 128 (≈ 36.4 µg/mL) | 64 (≈ 18.2 µg/mL) | 512 (≈ 146 µg/mL) | 16 (≈ 4.55 µg/mL) | 64 (≈ 18.2 µg/mL) | 512 (≈ 146 µg/mL) | 128 (≈ 36.4 µg/mL) | 4 (≈ 1.14 µg/mL) | 256 (≈ 72.8 µg/mL) | 32 (≈ 9.1 µg/mL) |  |
